We go through 10 compounds from patent US9346827B2, “5-amino-oxazepine and 5-amino-thiazepane compounds as beta secretase antagonists and methods of use” (Amgen Inc., priority 2011, dated 2016).

In one test the target is BACE 1 (Homo sapiens (Human), UniProt P56817). Kind of test: In vitro enzymatic BACE FRET assay. The format is biochemical. Conditions: average IC50; enzyme 0.2 nM, FRET substrate 50 nM, pH 4.2. The procedure: In Vitro Enzymatic BACE FRET (Fluorescence Resonance Energy Transfer) Assay
The assay buffer used in this screen is 0.05 M acetate, pH 4.2, 10% DMSO final, 100 uM genapol (which is a nonionic detergent, below its Critical Micelle Concentration). […] This assay is effectively started by the addition of FRET substrate (50 nM) and the combination is incubated for one hour. The FRET assay is terminated with by addition of Tris buffer, which raises the pH to neutrality, and the fluorescence is determined. The FRET substrate is a peptide with commercially available fluorophore and quencher, on opposite sides of the BACE cleavage site. Proteolytic cleavage of the FRET substrate releases quenching of fluorescence (excitation […] and […]).

Test [1] concerns Aβ40 in conditioned medium of cells expressing amyloid precursor protein. Kind of test: In vitro BACE cell-based assay (HEK cell assay, Aβ40 sandwich ELISA). Conditions: Homo sapiens, HEK293; average IC50; inhibition of Aβ40 after 24 h incubation. The procedure:
In Vitro BACE Cell-Based Assay
The cell-based assay measures inhibition or reduction of Aβ40 in conditioned medium of test compound treated cells expressing amyloid precursor protein.
Cells stably expressing Amyloid Precursor Protein (APP) were plated at a density of 40K cells/well in 96 well plates (Costar). The cells were cultivated for 24 hours at 37° C. and 5% CO2 in DMEM supplemented with 10% FBS. The test compounds were then added to cells in 10-point dose response concentrations with the starting concentration being either 100 μM or 10 μM. The compounds were diluted from stock solutions in DMSO and the final DMSO concentration of the test compounds on cells was 0.1%. After 24 h of incubation with the test compounds the supernatant conditioned media was collected and the Aβ40 levels were determined using a sandwich ELISA. The IC50 of the compound was calculated from the percent of control or percent inhibition of Aβ40 as a function of the concentration of the test compound.
The sandwich ELISA to detect Aβ40 was performed in 96 well microtiter plates, which were pre-treated with goat anti-rabbit IgG (Pierce). The capture and detecting antibody pair that were used to detect Aβ40 from cell supernatants were affinity purified pAb40 (Biosource) and biotinylated 6E10 (Signet Labs Inc.), respectively. The optimal concentration for the pAb40 antibody was 3 μg/ml in Superblock/TBS (Pierce) that was supplemented with 0.05% Tween 20 (Sigma).
Cellular supernatants were incubated with the capture antibody for 3 h at 4° C., followed by 3 wash steps in TBS-tween (0.05%). The detecting antibody incubation was for 2 h at 4° C., again followed by the wash steps as described previously. The final readout of the ELISA is Time-Resolved Fluorescence (counts per minute) using Delfia reagents Streptavidin-Europium and Enhancement solutions (Perkin Elmer) and the Victor 2 multilabel counter (Perkin Elmer).
A general note: ELISA stands for enzyme-linked immunosorbent assay.

Structures are written as SMILES.

For orientation: IC50 means the concentration at which inhibition is half-maximal.

BACE 1, sequence (P56817 46-501, species assumed): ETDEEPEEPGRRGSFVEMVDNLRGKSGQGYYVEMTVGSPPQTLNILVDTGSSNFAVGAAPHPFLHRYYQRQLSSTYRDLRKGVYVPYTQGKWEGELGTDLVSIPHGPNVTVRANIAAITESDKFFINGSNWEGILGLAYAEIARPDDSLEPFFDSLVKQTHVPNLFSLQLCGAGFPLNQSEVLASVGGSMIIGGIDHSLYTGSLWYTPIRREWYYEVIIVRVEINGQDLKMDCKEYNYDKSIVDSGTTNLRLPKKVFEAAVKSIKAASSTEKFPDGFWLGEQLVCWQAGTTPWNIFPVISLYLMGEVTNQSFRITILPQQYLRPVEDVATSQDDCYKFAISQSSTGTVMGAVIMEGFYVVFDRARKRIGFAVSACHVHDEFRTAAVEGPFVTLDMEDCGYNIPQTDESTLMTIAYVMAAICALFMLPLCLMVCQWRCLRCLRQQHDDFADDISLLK

On to `CC(C)(C)COc1cc(F)c2c(c1)[C@@]1(COCCC(N)=N1)c1cc(-c3cccnc3F)ccc1O2` [Example 16, (3R)-2′-(2,2-dimethylpropoxy)-4′-fluoro-7′-(2-fluoro-3-pyridinyl)-6,7-dihydrospiro[1,4-oxazepine-3,9′-xanthen]-5-amine], for which the values for the IC50 (on BACE 1; in test [1]) were 285 nM and 300 nM, respectively.

Turning to `NC1=N[C@@]2(COCC1)c1cc(Br)ccc1Oc1cnc(Cl)cc12` [Example 3B, (5S)-7-bromo-3-chloro-6′,7′-dihydrospiro-[chromeno[2,3-c]-pyridine-5,3′-[1,4]oxazepin]-5′-amine], the IC50 stood at 3830 nM on BACE 1 and 892 nM in test [1].

On to `CC(C)(C)COc1cc(F)c2c(c1)C1(COCCC(N)=N1)c1cc(-c3cccnc3F)ccc1O2` (racemic) [Example 4, (3R/S)-2′-(2,2-dimethylpropoxy)-4′-fluoro-7′-(2-fluoro-3-pyridinyl)-6,7-dihydrospiro[1,4-oxazepine-3,9′-xanthen]-5-amine], for which the results for the IC50 (at BACE 1; in test [1]) were 1 nM and 12 nM, respectively.

Regarding `NC1=N[C@]2(COCC1)c1cc(Br)ccc1Oc1cnc(Cl)cc12` [Example 3A, (5R)-7-bromo-3-chloro-6′,7′-dihydrospiro-[chromeno[2,3-c]pyridine-5,3′-[1,4]oxazepin]-5′-amine], the IC50 is 9230 nM on BACE 1 and 6370 nM in test [1].

Regarding `NC1=N[C@]2(CCOC1)c1cc(-c3cccnc3F)ccc1Oc1cnc(-c3ccnc(F)c3)cc12` [Example 17, (5R)-7-(2-fluoro-3-pyridinyl)-3-(2-fluoro-4-pyridinyl)-6′,7′-dihydro-2′H-spiro[chromeno[2,3-c]pyridine-5,5′-[1,4]oxazepin]-3′-amine], the IC50 was found to be 369 nM at BACE 1 and 689 nM in test [1].

As for `CC(C)(C)COc1cc(F)c2c(c1)[C@]1(COCCC(N)=N1)c1cc(-c3cccnc3F)ccc1O2` [Example 15, (3S)-2′-(2,2-dimethylpropoxy)-4′-fluoro-7′-(2-fluoro-3-pyridinyl)-6,7-dihydrospiro[1,4-oxazepine-3,9′-xanthen]-5-amine], the half-maximal inhibitory concentration (IC50) at BACE 1 is 0.5 nM; in test [1], 7 nM.

On to `NC1=N[C@]2(COCC1)c1cc(-c3cccnc3F)ccc1Oc1cnc(-c3ccnc(F)c3)cc12` [Example 13, (5R)-7-(2-fluoro-3-pyridinyl)-3-(2-fluoro-4-pyridinyl)-6′,7′-dihydrospiro[chromeno-[2,3-c]-pyridine-5,3′-[1,4]oxazepin]-5′-amine], for which the IC50 on BACE 1 was 139 nM; in test [1], 78 nM.

With `NC1=NC2(COCC1)c1cc(-c3cccnc3F)ccc1Oc1cnc(-c3ccnc(F)c3)cc12` (racemic) [Example 2, (5R/S)-7-(2-fluoro-3-pyridinyl)-3-(2-fluoro-4-pyridinyl)-6′,7′-dihydrospiro-[chromeno-[2,3-c]pyridine-5,3′-[1,4]oxazepin]-5′-amine], the IC50 on BACE 1 amounted to 1 nM; in test [1], 3 nM.

On to `NC1=N[C@@]2(CCOC1)c1cc(-c3cccnc3F)ccc1Oc1cnc(N3CCC(F)(F)C3)cc12` [Example 19, (S)-3-(3,3-difluoropyrrolidin-1-yl)-7-(2-fluoropyridin-3-yl)-6′,7′-dihydro-2′H-spiro[chromeno[2,3-c]pyridine-5,5′-[1,4]oxazepin]-3′-amine], for which the IC50 at BACE 1 is 3 nM; in test [1], 4 nM.

Turning to `NC1=N[C@@]2(COCC1)c1cc(-c3cccnc3F)ccc1Oc1cnc(-c3ccnc(F)c3)cc12` [Example 14, (5S)-7-(2-fluoro-3-pyridinyl)-3-(2-fluoro-4-pyridinyl)-6′,7′-dihydrospiro[chromeno-[2,3-c]-pyridine-5,3′-[1,4]oxazepin]-5′-amine], the results for the IC50 (on BACE 1; in test [1]) were 0.5 nM and 1 nM, respectively.
